This is an account of results in patent publication US3939204A, “Radioactive functional diagnostic agents” (priority 1972, dated 1976).

Each structure is given as a SMILES string. Structures can show the parent of a compound that is named as a salt.

Data set [1] can be described thus: distribution in the body as function of time after intravenous administration, measured by scinticamera. The data set is classed as in vivo, human. The settings on record: for Time of Appearance in Gallbladder / Time of Appearance in Intestine / Blood T 1/2 / Liver T 1/2 / Maximum Liver Accumulation: approximately 0.25 millicurie per injection; for Blood T 1/2: elimination from blood into liver cells; for Liver T 1/2: elimination from liver cells into bile ducts and gallbladder; for Maximum Liver Accumulation: time of maximum accumulation.
Procedure: These compounds were tested intravenously on humans. The total quantity of radioactivity per injection of the respectively injected aqueous test solution was approximately 0.25 millicurie in each instance.
The distribution in the body as function of time after administration was measured by scinticamera in the usual manner.

For data set [2] the following is noted: background statement in words; cited from earlier work.

In the case of `O=C(COCC(=O)Nc1c(I)cc(I)c(C(=O)O)c1I)Nc1c(I)cc(I)c(C(=O)O)c1I` [A, diglycolic acid bis(3-carboxy-2,4,6-triiodoanilide)-131-iodine N-methylglucamine salt], in data set [1] (humans, intravenous), the “Time of Appearance in Gallbladder” value was 25.5 min, the “Time of Appearance in Intestine” value turned out to be 14.6 min, the “Blood T 1/2” value came to 3.22 min and the “Liver T 1/2” value turned out to be 3.19 min. Also, the “Maximum Liver Accumulation” value in data set [1] (humans, intravenous) was determined as 16.5 min. Further, in data set [1] (humans, intravenous, in words), the “enterohepatic cycle (reabsorption from the intestine into the bloodstream)” value was “absence of an enterohepatic cycle”; the “liver passage (from T 1/2 values)” value is recorded as “markedly faster liver passage”; the “times of appearance in the intestine and gallbladder, compared with B and C” value is “markedly shorter than in the comparison substances B and C”. For the same compound, in data set [1] (patients having a healthy liver), the concomitant gallbladder representation entry is “a concomitant gallbladder representation is obtained”.

Regarding `O=C1OC2(c3cc(I)c(O)c(I)c3Oc3c2cc(I)c(O)c3I)c2c(Cl)c(Cl)c(Cl)c(Cl)c21` [B, tetrachlorotetraiodofluorescein-131-iodine sodium salt], in data set [1] (humans, intravenous), the “Time of Appearance in Gallbladder” value stood at 45 min, the “Time of Appearance in Intestine” value was found to be 45 min, the “Blood T 1/2” value amounted to 8.14 min and the “Liver T 1/2” value came to 10.24 min. Further, the “Maximum Liver Accumulation” value in data set [1] (humans, intravenous) amounted to 30 min. Besides, in data set [2], the “elimination from the liver” value is on record as “after a longer period of time” and the “maximum accumulation in the liver” value was “after a longer period of time”.
